Where two headings read alike, the source gives them in different places.
Legend:
[1] = test system: FLT3 ITD.Y842H-expressing 32D cells; assay: Cell growth assay, FLT3 ITD.Y842H-expressing 32D cells; assay type: cell-based; conditions: Mus musculus, read-out: GI50 value for growth of FLT3 protein-expressing 32D cells
From the text: (§1) The ITD.Y842C-mutant or ITD.Y842H-mutant FLT3-expressing vector was constructed by introducing Y842C and Y842H mutations into the C-terminal FLAG sequence-added ITD-mutant FLT3 gene inserted into a pGEM-T vector as a template, using the primers shown below and according to the protocol of a QuikChange Site-Directed Mutagenesis Kit (Stratagene Corporation), and then inserting the whole length of the ITD.Y842-mutant FLT3 gene into a pMXs-IP retroviral vector. Introduced mutations were confirmed by sequence analysis.
(§2) The mutant FLT3 pMXs-IP retroviral vectors prepared according to the above-mentioned procedure were introduced into PLAT-E cells by using FuGENE6, followed by culturing for 2 days, and the culture supernatant containing viruses was collected. […]
(§3) Individual cells were seeded onto a 96-well plate (Becton, Dickinson and Company) at a density of 1000 to 10000 cells/well, and the cell culture was started at 37° C. in the presence of 5% CO2. […] Thereafter, the absorbance (OD=492 nm) was measured using an MPR-A4i II microplate reader (Tosoh Corporation). In a case where the absorbance is insufficient, the absorbance was measured after performing the culturing for another 1 to 2 hours. […]

[2] = test system: 32D FLT3 D835Y cells; assay: Cell growth assay, 32D FLT3 D835Y; assay type: cell-based; conditions: Mus musculus, 48 h, read-out: GI50 value for growth of FLT3 protein-expressing 32D cells
Protocol: (§4) After the virus-containing culture supernatant was added to the mouse hematopoietic precursor cell line 32D cells in the presence of 10 μg/mL polybrene, and the cells were cultured in the presence of 0.5 ng/mL mouse IL-3.
(§5) Individual cells were seeded onto a 96-well plate (Becton, Dickinson and Company) at a density of 1000 to 10000 cells/well, and the cell culture was started at 37° C. in the presence of 5% CO2. On the next day, the compound diluted in 3-fold common ratio was added to each well, followed by further culturing for 2 days. Then, in order to evaluate the cell viability, a CellTiter 96 AQueous One SolutionReagent was added to each well according to the Promega Corporation's protocol, followed by culturing for 1 hour. […] In a case where the absorbance is insufficient, the absorbance was measured after performing the culturing for another 1 to 2 hours.

[3] = test system: 32D FLT3 Y842H cells; assay: Cell growth assay, 32D FLT3 Y842H; assay type: cell-based; conditions: Mus musculus, 48 h, read-out: GI50 value for growth of FLT3 protein-expressing 32D cells
Protocol: as §4, §5

[4] = test system: 32D FLT3 D835Ins cells; assay: Cell growth assay, 32D FLT3 D835Ins; assay type: cell-based; conditions: Mus musculus, 48 h, read-out: GI50 value for growth of FLT3 protein-expressing 32D cells
Protocol: as §4, §5

[5] = test system: FLT3 ITD-expressing 32D cells; assay: Cell growth assay, FLT3 ITD-expressing 32D cells; assay type: cell-based; conditions: Mus musculus, read-out: GI50 value for growth of FLT3 protein-expressing 32D cells
From the text: The ITD-mutant FLT3-expressing vector was constructed by introducing an ITD-mutant FLT3 gene (clone Mt2) described in Kiyoi H, et al., Leukemia, Vol. 12, pp. 1333 to 1337, 1998 into a pMXs-IP retroviral vector as a sequence having a FLAG sequence added to the C-terminal thereof.
as §2, with “collected. After the virus-containing culture supernatant was added to the mouse hematopoietic precursor cell line 32D cells in the presence of 10 μg/mL polybrene, and the cells were cultured in the presence of 0.5 ng/mL mouse IL-3.” for “collected.”
as §3

[6] = test system: 32D FLT3 D835E cells; assay: Cell growth assay, 32D FLT3 D835E; assay type: cell-based; conditions: Mus musculus, 48 h, read-out: GI50 value for growth of FLT3 protein-expressing 32D cells
Protocol: as §4, §5

[7] = test system: 32D FLT3 D835H cells; assay: Cell growth assay, 32D FLT3 D835H; assay type: cell-based; conditions: Mus musculus, 48 h, read-out: GI50 value for growth of FLT3 protein-expressing 32D cells
Protocol: as §4, §5

[8] = test system: 32D FLT3 D835N cells; assay: Cell growth assay, 32D FLT3 D835N; assay type: cell-based; conditions: Mus musculus, 48 h, read-out: GI50 value for growth of FLT3 protein-expressing 32D cells
Protocol: as §4, §5

[9] = test system: 32D FLT3 D835V cells; assay: Cell growth assay, 32D FLT3 D835V; assay type: cell-based; conditions: Mus musculus, 48 h, read-out: GI50 value for growth of FLT3 protein-expressing 32D cells
Protocol: as §4, §5

[10] = test system: 32D FLT3/FL cells; assay: Cell growth assay, FLT3/FLT3 ligand-coexpressing 32D cell line; assay type: cell-based; conditions: Mus musculus, 48 h, read-out: GI50 value for growth of FLT3 protein-expressing 32D cells
Protocol: RPMI1640 and DMEM were purchased from Life Technologies or SIGMA. The 32D cells were obtained from RIKEN Bioresource Center, and cultured in the presence of 5% CO2 at 37° C. using an RPMI1640 medium containing 1 ng/mL mouse IL-3, 10% fetal bovine serum (FBS), 100 U/mL penicillin and […] streptomycin. The PLAT-E cells were kindly provided by Dr. Kitamura Toshio of Tokyo University and cultured in a DMEM medium containing 1 μg/mL puromycin, 10 μg/mL blasticidin S, 10% FBS, 100 U/mL penicillin and […] streptomycin. […] A pGEM-T vector, FuGENE6 and CellTiter 96 AQueous One Solution Cell Proliferation Assay were purchased from Promega Corporation.
as §5

[11] = test system: FLT3 ITD.D835Y-expressing 32D cells; assay: Cell growth assay, FLT3 ITD.D835Y-expressing 32D cells; assay type: cell-based; conditions: Mus musculus, read-out: GI50 value for growth of FLT3 protein-expressing 32D cells
From the text: The ITD.D835Y-mutant FLT3-expressing vector was constructed by replacing a sequence containing aspartic acid 835 cleaved by Sphl, in the C-terminal FLAG sequence-added ITD-mutant FLT3 gene inserted into a pGEM-T vector, with the corresponding sequence of the C-terminal FLAG sequence-added D835Y-mutant FLT3 gene inserted into a pGEM-T vector, and then inserting the whole length of C-terminal FLAG sequence-added ITD.D835Y-mutant FLT3 sequence into a pMXs-IP retroviral vector.
as §2, with “collected. After the virus-containing culture supernatant was added to the mouse hematopoietic precursor cell line 32D cells in the presence of 10 μg/mL polybrene, and the cells were cultured in the presence of 0.5 ng/mL mouse IL-3.” for “collected.”
as §3

[12] = test system: 32D FLT3 Y842C cells; assay: Cell growth assay, 32D FLT3 Y842C; assay type: cell-based; conditions: Mus musculus, 48 h, read-out: GI50 value for growth of FLT3 protein-expressing 32D cells
Protocol: as §4, §5

[13] = test system: FLT3 ITD.Y842C-expressing 32D cells; assay: Cell growth assay, FLT3 ITD.Y842C-expressing 32D cells; assay type: cell-based; conditions: Mus musculus, read-out: GI50 value for growth of FLT3 protein-expressing 32D cells
From the text: as §1, §2, §3

[14] = target: mutant FLT3 protein (FLT3 D835Y) (Homo sapiens (Human), UniProt P36888, D835Y); assay: Mutant FLT3 (FLT3 D835Y) enzyme inhibition assay; assay type: biochemical; conditions: ATP 15 μmol/L, read-out: IC50 value for an enzymatic activity of a mutant FLT3 protein
[15] = FLT3 D835Y, 2 days with compound
[16] = FLT3 Y842H, 2 days with compound
[17] = FLT3 D835Ins (I836 to leucine and aspartic acid), 2 days with compound
[18] = FLT3 D835E, 2 days with compound
[19] = FLT3 D835H, 2 days with compound
[20] = FLT3 D835N, 2 days with compound
[21] = FLT3 D835V, 2 days with compound
[22] = FLT3 Y842C, 2 days with compound

With CCCNc1nc(Nc2ccc(C#N)cc2)ncc1C#CCCCNC(=O)[C@H](C)N(C)C(=O)/C=C/CN(C)C [Compound 38] the GI50 [1] was under 1 nM, the GI50 [2, 15] was under 1 nM and the GI50 [3, 16] was 1 to 10 nM. It also gave a GI50 [4, 17] of 1 to 10 nM, a GI50 [5] of 1 to 10 nM and a GI50 [6, 18] of 1 to 10 nM. For the same molecule, the GI50 [7, 19] was 1 to 10 nM, the GI50 [8, 20] was 1 to 10 nM and the GI50 [9, 21] was under 1 nM. For the same molecule, the GI50 ([10]; FLT3/FL, 2 days with compound) was 1 to 10 nM, the GI50 [11] was 1 to 10 nM and the GI50 [12, 22] was 1 to 10 nM. The GI50 [13] was 1 to 10 nM.
With CCCNc1nc(Nc2cccc(F)c2)ncc1C#C[C@H]1C[C@@H](NC(=O)[C@H](C)N(C)C(=O)/C=C/CN(C)C)C1 [Compound 39] the GI50 [2, 15] was 1 to 10 nM, the GI50 [3, 16] was 1 to 10 nM and the GI50 [4, 17] was under 1 nM. The GI50 [6, 18] was under 1 nM, the GI50 [7, 19] was 1 to 10 nM and the GI50 [8, 20] was under 1 nM. It also gave a GI50 [9, 21] of 1 to 10 nM, a GI50 ([10]; FLT3/FL, 2 days with compound) of under 1 nM and an IC50 [14] of under 1 nM. It also gave a GI50 [12, 22] of 1 to 10 nM.
In the case of C[C@@H](C(=O)N[C@H]1C[C@@H](C#Cc2cnc(Nc3ccc(F)cc3)nc2NC2CC2)C1)N(C)C(=O)/C=C/CN(C)C [Compound 40], the GI50 [2, 15] is reported as under 1 nM, the GI50 [3, 16] is reported as 1 to 10 nM and the GI50 [4, 17] is reported as under 1 nM. The GI50 [6, 18] was under 1 nM, the GI50 [7, 19] was 1 to 10 nM and the GI50 [8, 20] was under 1 nM. The GI50 [9, 21] was under 1 nM, the GI50 ([10]; FLT3/FL, 2 days with compound) was under 1 nM and the IC50 [14] was under 1 nM. For the same molecule, the GI50 [12, 22] was 1 to 10 nM.
For CNc1nc(Nc2ccc(F)cc2)ncc1C#C[C@H]1C[C@@H](NC(=O)[C@H](C)N(C)C(=O)/C=C/CN(C)C)C1 [Compound 41], the GI50 [2, 15] was 1 to 10 nM, the GI50 [3, 16] was 1 to 10 nM and the GI50 [4, 17] was 1 to 10 nM. The GI50 [6, 18] was 1 to 10 nM, the GI50 [7, 19] was 1 to 10 nM and the GI50 [8, 20] was 1 to 10 nM. For the same molecule, the GI50 [9, 21] was 1 to 10 nM, the GI50 ([10]; FLT3/FL, 2 days with compound) was under 1 nM and the IC50 [14] was under 1 nM. The GI50 [12, 22] was 1 to 10 nM.
In the case of CNC(=O)c1cc(Oc2ccc(NC(=O)Nc3ccc(Cl)c(C(F)(F)F)c3)cc2)ccn1 [Reference Compound 2, Sorafenib, reference compound], the GI50 [2] is reported as over 100 nM, the GI50 [3] is reported as over 100 nM and the GI50 [4] is reported as 10 to 100 nM. For the same molecule, the GI50 [6] was 10 to 100 nM, the GI50 [7] was over 100 nM and the GI50 [8] was 10 to 100 nM. The GI50 [9] was over 100 nM, the GI50 [10] was 10 to 100 nM and the GI50 [12] was over 100 nM.
